In ChEMBL document CHEMBL1126513, “Quinuclidine-based NK-1 antagonists I: 3-benzyloxy-1-azabicyclo[2.2.2]octanes” (Bioorg Med Chem Lett, 1993):

Each compound was assayed against Substance-P receptor (Homo sapiens, UniProt P25103) (assay: Displacement of [125]Substance P Binding from human Neurokinin NK1 receptor in CHO Cells).
Substance-P receptor, sequence (P25103 whole entry): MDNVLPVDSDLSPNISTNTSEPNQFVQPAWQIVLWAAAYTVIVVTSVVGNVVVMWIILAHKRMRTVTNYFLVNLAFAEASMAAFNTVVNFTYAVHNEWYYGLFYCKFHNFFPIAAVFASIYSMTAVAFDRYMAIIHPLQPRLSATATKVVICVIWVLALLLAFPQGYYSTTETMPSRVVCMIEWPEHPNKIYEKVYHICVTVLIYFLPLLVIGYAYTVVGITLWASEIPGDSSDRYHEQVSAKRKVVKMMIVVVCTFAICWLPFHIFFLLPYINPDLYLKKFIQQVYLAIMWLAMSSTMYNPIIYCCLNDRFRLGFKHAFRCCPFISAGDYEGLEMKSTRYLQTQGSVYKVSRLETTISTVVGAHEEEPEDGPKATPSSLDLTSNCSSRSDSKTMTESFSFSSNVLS

| SMILES | IC50 |
| --- | --- |
| S=C(Nc1ccccc1)N[C@H]1C2CCN(CC2)[C@H]1C(c1ccccc1)c1ccccc1 | > 1000 nM |
| O=C(Nc1ccccc1)O[C@H]1C2CCN(CC2)[C@H]1C(c1ccccc1)c1ccccc1 | > 1000 nM |
| Cc1ccc(CO[C@H]2C3CCN(CC3)[C@H]2C(c2ccccc2)c2ccccc2)cc1C | 197 nM |
| Cc1cccc(CO[C@H]2C3CCN(CC3)[C@H]2C(c2ccccc2)c2ccccc2)c1 | 21 nM |
| O=C(N[C@H]1C2CCN(CC2)[C@H]1C(c1ccccc1)c1ccccc1)c1ccccc1 | > 1000 nM |
| c1ccc(CCN[C@H]2C3CCN(CC3)[C@H]2C(c2ccccc2)c2ccccc2)cc1 | 700 nM |
| c1ccc(CN[C@H]2C3CCN(CC3)[C@H]2C(c2ccccc2)c2ccccc2)cc1 | 150 nM |
| Cc1ccccc1CO[C@H]1C2CCN(CC2)[C@H]1C(c1ccccc1)c1ccccc1 | 183 nM |
| O=C(Nc1ccccc1)N[C@H]1C2CCN(CC2)[C@H]1C(c1ccccc1)c1ccccc1 | > 1000 nM |
| Cc1ccc(C)c(CO[C@H]2C3CCN(CC3)[C@H]2C(c2ccccc2)c2ccccc2)c1 | 48 nM |
| c1ccc(CO[C@H]2C3CCN(CC3)[C@H]2C(c2ccccc2)c2ccccc2)cc1 | 110000 nM |
| O=C(N[C@H]1C2CCN(CC2)[C@H]1C(c1ccccc1)c1ccccc1)Oc1ccccc1 | > 1000 nM |
| Cc1ccc(CO[C@H]2C3CCN(CC3)[C@H]2C(c2ccccc2)c2ccccc2)cc1 | 290 nM |
| Cc1cc(C)cc(CO[C@H]2C3CCN(CC3)[C@H]2C(c2ccccc2)c2ccccc2)c1 [L-706125] | 1 nM |
| O=S(=O)(N[C@H]1C2CCN(CC2)[C@H]1C(c1ccccc1)c1ccccc1)c1ccccc1 | > 1000 nM |
